Source: patent publication US8815523B2, “Method for live-cell activity assay” (Korea Institute of Science and Technology, priority 2010, dated 2014)

Columns and labels:
Assay type in all cases: cell-based
[1] = system: intracellular caspases; assay: Nanowire sandwich assay of intracellular caspase activity, TAMRA-labelled substrate peptide, fluorescence microscope; conditions: 200 nM apoptosis inducing agent in medium, 4 hours; 555 nm excitation/590 nm emission; FIG. 6D
Protocol: Since the fragments released into cells have TAMRA dye and can be identified by fluorescence microscope, activation of caspases may be confirmed based thereon.
As described in Example 5, peptides were fixed to nanowires using SMPH linker, and the peptide-fixed nanowires were positioned down, cell-fixed nanowire were positioned up, and they were contacted in a sandwich manner and incubated in DMEM containing penicillin (100 units/ml), streptomycin (0.1 mg/ml), 10% FBS and 200 nM Staurosporine (apoptosis inducing agent, Sigma) at 37° C., 5% CO2 for 4 hours.

[2] = system: intracellular caspases; assay: Nanowire sandwich assay of intracellular caspase activity, mass analysis (MALDI-TOF) of substrate peptide; conditions: 500 nM Staurosporine, 18 hours; FIG. 8C
[3] = system: Protein tyrosine phosphatase (PTP) in HeLa cells; assay: Nanowire sandwich assay of intracellular PTP activity with PTP inhibitors (MALDI-TOF of substrate peptide); conditions: 100 μM sodium orthovanadate and 40 μM α-bromo-4-hydroxyacetophenone given together, 40 minutes pre-incubation, then 1 hour sandwich incubation, FIG. 5C
Protocol: Specifically, the silicon nanowires prepared in Example 1 were washed with 100% (v/v) isopropyl alcohol before use and dried at room temperature, and then, introduced in 2 ml of toluene solution containing 100 μl of APTMS (Aminopropyl trimethoxysilane), reacted at room temperature for 2 hours, and washed 3 times respectively with toluene, 100% ethanol and distilled water, and finally washed with PBS (Phosphate Buffered Saline) to complete silanization so that the surface of the silicon nanowire has positively charged ammonium group. […]
The cell-fixed nanowires were positioned down, the PTP substrate peptide-fixed nanowires were positioned up, and they were contacted with each other, and then, incubated in DMEM medium containing penicillin (100 units/ml), streptomycin (0.1 mg/ml), and 10% FBS at 37° C., 5% CO2 for 1 hour. After incubation, the cell-fixed silicon nanowires and the peptide-fixed nanowires were separated from each other, and the peptide-fixed nanowires were washed with PBS and introduced in a buffer containing 50 mM Tris-HCl, pH 7.5, 0.5 mM EDTA, and 1 mM DTT (Dithiothreitol), and TEV protease (10 units/150 μl, Invitrogen) were added and treated at room temperature for 2 hours, and then, desalting was conducted with Zip-TIP (MILLIPORE), and changes of peptides were analyzed by MALDI-TOF (Applied Biosystems). […]

Row | Compound | intracellular caspase activation: TAMRA dye-containing peptide fragments released into the cells [1] | cleavage of caspase substrate peptide (mass peak of 1041 dalton) [2] | 1204 dalton peak (dephosphorylated PTP substrate peptide) in MALDI-TOF [3]
1 | CN[C@@H]1C[C@H]2O[C@@](C)([C@@H]1OC)n1c3ccccc3c3c4c(c5c6ccccc6n2c5c31)C(=O)NC4 [Staurosporine] | intracellular caspases are activated | cleaved by caspase activated by staurosporine | 
2 | O=C(CBr)c1ccc(O)cc1 [α-bromo-4-hydroxyacetophenone] |  |  | remarkably reduced
3 | [Na+].[Na+].[Na+].[O]=[V]([O-])([O-])[O-] [sodium orthovanadate] |  |  | remarkably reduced
